Reference: patent publication US20070293539A1, “Methods for the treatment of synucleinopathies” (priority 2004, published 2007)
“Also recorded” adds a separate entry of the source.

Tests used:
α-synuclein [1] = assay: α-synuclein accumulation in SH-SY5Y cells infected with α-synuclein-expressing adenovirus, Western blotting normalized against actin; assay type: cell-based
Protocol: (§1) Viral Infection: Viral infection and MTT assay in SH-SY5Y cells: The viruses were amplified and purified according to the published procedure. SH-SY5Y cells were grown on 100 mm petri-dishes and induced with 100 nM RA for 3-5 days before the virus infection with M.I.O at 75. Viruses were diluted with DPBS to desired M.I.O. After four hours of incubation, 10 ml growth medium was added. On the second day, cells were splitted into 96-well plates and treated with compounds for next 48 hours. The growth medium in each well was replaced with growth medium with 5 ug/ml MTT. Medium was removed after three hours incubation, and 200 ul isopropyl (0.04N HCl) was added into each well. The signal was read at 570 nm.
(§2) Western Blotting: Following transfer of SDS gels onto NC membrane, all membranes were blocked with 5% non-fat milk in TBST (50 mM Tris-HCl pH7.4, 150 mM NaCl, 0.1% Tween 20), and incubated with primary antibody overnight with 1% BSA in TBST, washed three times with TBST, and incubated with horseradish peroxidase-conjugated secondary antibody for 1 hour (Promega). Bound antibodies were detected using enhanced chemiluminascence (NEM).
Since α-synuclein neurotoxicity is dose-dependent, it follows that accumulation of α-synuclein, caused by UCH-L1 farnesylation, should promote its toxicity. […] (F) Cell viability was assessed by the amount of metabolic activity using MTT assay. […]

UCH-L1 [2] = assay: total amount and turnover of UCH-L1 in SH-SY5Y cells (pulse-chase experiment not shown); assay type: cell-based
α-synuclein [3] = assay: α-synuclein degradation assay in transfected COS-7 cells, quantitative Western blotting; assay type: cell-based
Description: Plasmids: C220S cDNA was generated by PCR site-specific mutagenesis. For the PCR, the 5′ primer is uchforw SEQ ID NO: 1 ([…]), and 3′ primer is uchc220s SEQ ID NO:2 (CTAAGA […]). Wt UCH-L1 served as the template. The PCR fragment was inserted into pcDNA vector. For S18YC220S mutant, S18Y UCH-L1 served as the template in PCR. For the FLAG tagged UCH-L1, the 5′ primer is FLAGuchforw SEQ ID NO: 3 ([…] CGATGGAG), and the 3′ primer is uchrev SEQ ID NO: 4 ([…]). Wt UCH-L1 or C220S served as the template. PCR fragment was purified and inserted into pcDNA vector. For the FLAG tagged UCH-L3, the 5′ primer is L3HindIII SEQ ID NO: 5 (CTAAAGCTTATGGACTAC […]), the 3′ primer is L3XhoISAA SEQ ID NO: 6 ([…]). […] After 24 hours of incubation, the cells were lysed with Tris buffer (50 mM Tris, 2% SDS, 0.1% NP-40), and subjected to SDS-PAGE, followed by quantitative Western blotting.
as §2, with “(NEM). […]” for “(NEM).”

[4] = system: SH-SY5Y cells infected by α-synuclein-expressing adenovirus; assay: α-synuclein toxicity in SH-SY5Y cells infected by α-synuclein-expressing adenovirus (Trypan blue viable cell counting, MTT assay); assay type: cell-based; conditions: SH-SY5Y cells overexpressing α-synuclein via adenoviral vector, compared to DMSO
Protocol: as §1
Viable cell counting: At stated time poins, SH-SY5Y cells were trypsinized with 100 ul trypsin-EDTA for 1 minute and neutralized with 400 ul growth medium. Cell suspension was made up by mixing 0.2 ml of cells in growth medium, 0.3 ml of HBSS and 0.5 ml of 0.4% Trypan Blue solution. Viable cell numbers were counted by standard cell counting chamber.
Since α-synuclein neurotoxicity is dose-dependent, it follows that accumulation of α-synuclein, caused by UCH-L1 farnesylation, should promote its toxicity. […] These cells express high endogenous levels of UCH-L1. […] The unit of y-axis is 10^5/ml. (F) Cell viability was assessed by the amount of metabolic activity using MTT assay. […]

UCH-L1 [5] = assay: 2D electrophoresis and Western blotting of membrane-bound and cytosolic UCH-L1 in SH-SY5Y cells; assay type: cell-based; conditions: compared to cells treated with DMSO
Protocol: 2D electrophoresis: For the isolation of total cellular protein, cultured SH-SY5Y cells maintained as described above were rinsed with ice-cold PBS. Cells were lysed in 1 ml dSDS buffer (50 mM Tris-HCl, pH 8.0 0.1% SDS) supplemented with protease inhibitor cocktail. Lysates were boiled for 3 min, and were treated with Dnase and Rnase as described. Lysates were precipitated with ice-cold acetone for at least 2 hours, and pellets were resuspended in 2D sample buffer (8M urea, 0.5% CHAPS, 0.2% DTT, 0.5% IPG buffer, 0.002% bromophenol blue). 2D electrophoresis was carried out according to manufacture's protocol (Amersham Life Science). 7 cm pH 4-7 strips were used. For SH-SY5Y membrane fraction, culture SH-SY5Y cells were rinsed with cold PBS and harvested with lysis buffer (50 mM Tris-HCl, pH 8.0, 1 mM ZnAc2, 250 mM sucrose). Lysate was passed through 25G needles for several times and spun at 1000 g for 5 min. […]
as §2, with “(NEM). […]” for “(NEM).”

[6] = human, in vivo; cited from earlier work
[7] = taken in a low dose; cited from earlier work

COC(=O)[C@H](CCSC)NC(=O)c1ccc(NC[C@@H](N)CS)cc1-c1ccccc1 [FTI-277]
amount of α-synuclein (α-synuclein [1]): reducing the amount of α-synuclein accumulation; also recorded: reduced the amount of α-synuclein | total amount of UCH-L1 (UCH-L1 [2]): reduced the total amount of UCH-L1 | rate of turnover of UCH-L1 (UCH-L1 [2]; pulse-chase experiment not shown): increased its rate of turnover | synuclein level (α-synuclein [3]; COS-7 cells): lowers synuclein level | α-synuclein toxicity (loss of cells) [4]: inhibits synuclein toxicity; also recorded: rescued α-synuclein toxicity; also recorded: significantly decreased loss of cells | amount of cytosolic UCH-L1 (UCH-L1 [5]): without affecting | amount of membrane bound UCH-L1 (UCH-L1 [5]): significant decrease; also recorded: decreased the amount of the membrane-associated species; also recorded: reducing the amount of membrane-associated protein

CC(=O)N[C@@H](CSC(=O)[C@]1([C@@H](O)C(C)C)NC(=O)[C@H](C)[C@@H]1O)C(=O)O [lactacysteine]
accumulation of α-synuclein (α-synuclein [3]; transfected COS-7 cells, 16 kDa α-synuclein normalized against actin): 100%

N[C@@H](Cc1ccc(O)c(O)c1)C(=O)O [levodopa]
patients that do not respond [6]: About 15%

C#CCN(C)[C@H](C)Cc1ccccc1 [selegiline]
delay of the need for levodopa [7]: roughly three
